In US10376520B2, “Methods for the treatment of cardiovascular disorders” (Galapagos NV, priority 2015, dated 2019):

Test system: RA patients
Experiment: [HDL] determination, Study 2 (RA patients, monotherapy)
Assay type: in vivo, human
Excerpt: Randomized, double-blind, placebo-controlled, multicenter, phase IIb dose finding study of Compound 1 (dosed as a [Compound 1:HCl:3H2O]) administered for 24 weeks as monotherapy to subjects with moderately to severely active rheumatoid arthritis who have an inadequate response to methotrexate alone
Double-blind, placebo-controlled, monotherapy study in subjects with moderately to severely active RA who have an inadequate response to methotrexate (MTX) (oral or parenteral).
280 subjects randomized to one of 3 doses of Compound 1 (dosed as a [Compound 1:HCl:3H2O]) or to placebo, given once daily (q.d.).
Twelve weeks of treatment with Compound 1 (dosed as a [Compound 1:HCl:3H2O]) at 50 mg, 100 mg, or 200 mg q.d.; or placebo. At Week 12, all subjects on placebo and the subjects on the 50 mg dose who have not achieved 20% improvement in swollen joint count (SJC66) and tender joint count (TJC68) will be assigned to 100 mg q.d. in a blinded fashion and will continue treatment until Week 24. Subjects in the other groups will maintain their randomized treatment until Week 24.
This assay relies on a homogeneous enzymatic colorimetric test. In the presence of magnesium ions, dextran sulfate selectively forms water-soluble complexes with LDL, VLDL and chylomicrons which are resistant to PEG-modified enzymes.
The cholesterol concentration of [HDL]-cholesterol is determined enzymatically by cholesterol esterase and cholesterol oxidase coupled with PEG to the amino groups (approx. 40%).
In the presence of peroxidase, the hydrogen peroxide generated reacts with 4-amino-antipyrine and Sodium N-(2-hydroxy-3-sulfopropyl)-3,5-dimethoxyaniline (HSDA) to form a purple-blue dye. The color intensity of this dye is directly proportional to the cholesterol concentration and is measured photometrically.
Human serum and plasma samples [HDL] determination was done on a Roche/Hitachi Cobas c 701/702 system which automatically calculate the analyte concentration of each sample. Samples containing precipitates are centrifuged before performing the assay.

[1] = placebo switching to 100 mg q.d. at week 12 (N = 72), week 16
[2] = placebo switching to 100 mg q.d. at week 12 (N = 72), week 20
[3] = placebo switching to 100 mg q.d. at week 12 (N = 72), week 24
[4] = placebo switching to 100 mg q.d. at week 12, week 16
[5] = placebo switching to 100 mg q.d. at week 12, week 20
[6] = placebo switching to 100 mg q.d. at week 12, week 24

O=C(Nc1nc2cccc(-c3ccc(CN4CCS(=O)(=O)CC4)cc3)n2n1)C1CC1 [Compound 1, cyclopropanecarboxylic acid {5-[4-(1,1-dioxo-thiomorpholin-4-ylmethyl)-phenyl]-[1,2,4]triazolo[1,5-a]pyridin-2yl}-amide]
[HDL] Mean CFB - 24 weeks results (100 mg q.d. (N = 70), week 8): 0.17 mmol/L
[HDL] Median CFB (100 mg q.d. (N = 70), week 8): 0.140 mmol/L
[HDL] Median CFB - 24 weeks results (100 mg q.d. (N = 70), week 8): 0.14 mmol/L
[HDL] Mean CFB (100 mg q.d. (N = 70), week 12): 0.190 mmol/L
[HDL] Mean CFB - 24 weeks results (100 mg q.d. (N = 70), week 12): 0.19 mmol/L
[HDL] Median CFB (100 mg q.d. (N = 70), week 12): 0.150 mmol/L
[HDL] Median CFB - 24 weeks results (100 mg q.d. (N = 70), week 12): 0.15 mmol/L
[HDL] Mean CFB - 24 weeks results (100 mg q.d. (N = 70), week 16): 0.23 mmol/L
[HDL] Median CFB - 24 weeks results (100 mg q.d. (N = 70), week 16): 0.20 mmol/L
[HDL] Mean CFB - 24 weeks results (100 mg q.d. (N = 70), week 20): 0.19 mmol/L
[HDL] Median CFB - 24 weeks results (100 mg q.d. (N = 70), week 20): 0.17 mmol/L
[HDL] Mean CFB - 24 weeks results (100 mg q.d. (N = 70), week 24): 0.18 mmol/L
[HDL] Median CFB - 24 weeks results (100 mg q.d. (N = 70), week 24): 0.18 mmol/L
[HDL] Mean percentage CFB - 12 weeks results (100 mg q.d., week 1): 7.49%
[HDL] Mean percentage CFB - 24 weeks results (100 mg q.d., week 1): 7.49%
[HDL] Median percentage CFB - 12 weeks results (100 mg q.d., week 1): 3.27%
[HDL] Mean percentage CFB - 12 weeks results (100 mg q.d., week 2): 11.30%
[HDL] Mean percentage CFB - 24 weeks results (100 mg q.d., week 2): 11.30%
[HDL] Median percentage CFB - 12 weeks results (100 mg q.d., week 2): 8.75%
[HDL] Mean percentage CFB - 12 weeks results (100 mg q.d., week 4): 15.65%
[HDL] Mean percentage CFB - 24 weeks results (100 mg q.d., week 4): 15.65%
[HDL] Median percentage CFB - 12 weeks results (100 mg q.d., week 4): 12.66%
[HDL] Mean percentage CFB - 12 weeks results (100 mg q.d., week 8): 13.77%
[HDL] Mean percentage CFB - 24 weeks results (100 mg q.d., week 8): 13.77%
[HDL] Median percentage CFB - 12 weeks results (100 mg q.d., week 8): 9.33%
[HDL] Mean percentage CFB - 12 weeks results (100 mg q.d., week 12): 15.23%
[HDL] Mean percentage CFB - 24 weeks results (100 mg q.d., week 12): 15.23%
[HDL] Median percentage CFB - 12 weeks results (100 mg q.d., week 12): 11.86%
[HDL] Median percentage CFB - 24 weeks results (100 mg q.d., week 16): 14.81%
[HDL] Mean percentage CFB - 24 weeks results (100 mg q.d., week 20): 14.51%
[HDL] Median percentage CFB - 24 weeks results (100 mg q.d., week 20): 13.29%
[HDL] Mean percentage CFB - 24 weeks results (100 mg q.d., week 24): 15.18%
[HDL] Median percentage CFB - 24 weeks results (100 mg q.d., week 24): 12.54%
[HDL] Mean CFB (200 mg q.d. (N = 69), week 1): 0.026 mmol/L
[HDL] Mean CFB - 24 weeks results (200 mg q.d. (N = 69), week 1): 0.03 mmol/L
[HDL] Median CFB (200 mg q.d. (N = 69), week 1): 0.030 mmol/L
[HDL] Median CFB - 24 weeks results (200 mg q.d. (N = 69), week 1): 0.03 mmol/L
[HDL] Mean CFB (200 mg q.d. (N = 69), week 2): 0.163 mmol/L
[HDL] Mean CFB - 24 weeks results (200 mg q.d. (N = 69), week 2): 0.16 mmol/L
[HDL] Median CFB (200 mg q.d. (N = 69), week 2): 0.150 mmol/L
[HDL] Median CFB - 24 weeks results (200 mg q.d. (N = 69), week 2): 0.15 mmol/L
[HDL] Mean CFB (200 mg q.d. (N = 69), week 4): 0.220 mmol/L
[HDL] Mean CFB - 24 weeks results (200 mg q.d. (N = 69), week 4): 0.22 mmol/L
[HDL] Median CFB (200 mg q.d. (N = 69), week 4): 0.210 mmol/L
[HDL] Median CFB - 24 weeks results (200 mg q.d. (N = 69), week 4): 0.21 mmol/L
[HDL] Mean CFB (200 mg q.d. (N = 69), week 8): 0.219 mmol/L
[HDL] Mean CFB - 24 weeks results (200 mg q.d. (N = 69), week 8): 0.22 mmol/L
[HDL] Median CFB (200 mg q.d. (N = 69), week 8): 0.200 mmol/L
[HDL] Median CFB - 24 weeks results (200 mg q.d. (N = 69), week 8): 0.20 mmol/L
[HDL] Mean CFB (200 mg q.d. (N = 69), week 12): 0.194 mmol/L
[HDL] Mean CFB - 24 weeks results (200 mg q.d. (N = 69), week 12): 0.19 mmol/L
[HDL] Median CFB (200 mg q.d. (N = 69), week 12): 0.150 mmol/L
[HDL] Median CFB - 24 weeks results (200 mg q.d. (N = 69), week 12): 0.15 mmol/L
[HDL] Mean CFB - 24 weeks results (200 mg q.d. (N = 69), week 16): 0.19 mmol/L
[HDL] Median CFB - 24 weeks results (200 mg q.d. (N = 69), week 16): 0.16 mmol/L
[HDL] Mean CFB - 24 weeks results (200 mg q.d. (N = 69), week 20): 0.21 mmol/L
[HDL] Median CFB - 24 weeks results (200 mg q.d. (N = 69), week 20): 0.16 mmol/L
[HDL] Mean CFB - 24 weeks results (200 mg q.d. (N = 69), week 24): 0.19 mmol/L
[HDL] Median CFB - 24 weeks results (200 mg q.d. (N = 69), week 24): 0.16 mmol/L
[HDL] Mean percentage CFB - 12 weeks results (200 mg q.d., week 1): 2.04%
[HDL] Mean percentage CFB - 24 weeks results (200 mg q.d., week 1): 2.04%
[HDL] Median percentage CFB - 12 weeks results (200 mg q.d., week 1): 2.50%
[HDL] Mean percentage CFB - 12 weeks results (200 mg q.d., week 2): 11.20%
[HDL] Mean percentage CFB - 24 weeks results (200 mg q.d., week 2): 11.20%
[HDL] Median percentage CFB - 12 weeks results (200 mg q.d., week 2): 9.92%
[HDL] Mean percentage CFB - 12 weeks results (200 mg q.d., week 4): 15.68%
[HDL] Mean percentage CFB - 24 weeks results (200 mg q.d., week 4): 15.68%
[HDL] Median percentage CFB - 12 weeks results (200 mg q.d., week 4): 14.18%
[HDL] Mean percentage CFB - 12 weeks results (200 mg q.d., week 8): 15.24%
[HDL] Mean percentage CFB - 24 weeks results (200 mg q.d., week 8): 15.24%
[HDL] Median percentage CFB - 12 weeks results (200 mg q.d., week 8): 16.35%
[HDL] Mean percentage CFB - 12 weeks results (200 mg q.d., week 12): 14.60%
[HDL] Mean percentage CFB - 24 weeks results (200 mg q.d., week 12): 14.60%
[HDL] Median percentage CFB - 12 weeks results (200 mg q.d., week 12): 12.00%
[HDL] Mean percentage CFB - 24 weeks results (200 mg q.d., week 16): 13.07%
[HDL] Mean percentage CFB - 24 weeks results (200 mg q.d., week 20): 15.18%
[HDL] Median percentage CFB - 24 weeks results (200 mg q.d., week 20): 11.54%
[HDL] Mean percentage CFB - 24 weeks results (200 mg q.d., week 24): 13.79%
[HDL] Median percentage CFB - 24 weeks results (200 mg q.d., week 24): 11.96%
[HDL] Mean CFB - 24 weeks results [1]: 0.19 mmol/L
[HDL] Median CFB - 24 weeks results [1]: 0.16 mmol/L
[HDL] Mean CFB - 24 weeks results [2]: 0.19 mmol/L
[HDL] Median CFB - 24 weeks results [2]: 0.18 mmol/L
[HDL] Mean CFB - 24 weeks results [3]: 0.16 mmol/L
[HDL] Median CFB - 24 weeks results [3]: 0.15 mmol/L
[HDL] Mean percentage CFB - 24 weeks results [4]: 16.36%
[HDL] Median percentage CFB - 24 weeks results [4]: 10.82%
[HDL] Mean percentage CFB - 24 weeks results [5]: 16.02%
[HDL] Median percentage CFB - 24 weeks results [5]: 13.11%
[HDL] Mean percentage CFB - 24 weeks results [6]: 13.47%
[HDL] Median percentage CFB - 24 weeks results [6]: 11.36%
